# Earlier results, collected in patent US20050070514A1, “Therapies for treating respiratory diseases” (priority 2001, published 2005).
# Settings: developed as an antidepressant
smiles,measurement,value
COc1ccc(C2CNC(=O)C2)cc1OC1CCCC1 (stereo not shown) [rolipram],side effects in clinical studies,"has psychotropic activity and produces gastrointestinal effects, e.g., pyrosis, nausea and emesis"
